Test results from PMC9457583, “New Chemicals Suppressing SARS-CoV-2 Replication in Cell Culture” (Molecules, 2022).
Where two headings read alike, the source gives them in different places. Peptide text beside a SMILES is read from it. * marks the point of attachment. Cbz = O=C(OCc1ccccc1)*

How the values were obtained:
SARS-CoV-2 [1] = assay: microbe, parasite or virus in culture; assay type: cell-based
SARS-CoV-2 [2] = test system: SARS-CoV-2; design: method as in PMID 32855413; conditions: cited from earlier work
SARS-CoV-2 Mpro = conditions: read-out: IC50 (Mpro); cited from earlier work
[3] = design: method as in PMID 32855413; conditions: read-out: CC50 (cytotoxicity); cited from earlier work
SARS-CoV-2 [4] = test system: SARS-CoV-2; design: method as in PMID 35287429; conditions: read-out: EC50 (SARS-CoV-2 replication in cell culture); cited from earlier work
SARS-CoV-2 [5] = test system: SARS-CoV-2; design: method as in PMID 33062953; conditions: cited from earlier work
SARS-CoV-2 [6] = conditions: SARS-CoV-2-infected Vero E6/TMPRSS2 cells; cited from earlier work
SARS-CoV-2 [7] = test system: SARS-CoV-2; design: method as in PMID 34726479; conditions: Vero E6 cell culture; read-out: EC50 (virus replication); cited from earlier work
[8] = Severe acute respiratory syndrome coronavirus 2, Vero C1008, 96 h
[9] = Severe acute respiratory syndrome coronavirus 2, Vero C1008, Vero E6 cells, MOI 0.1, 96 h, MTT, read-out: EC50

SMILES | melting point [°C] | EC50 (SARS-CoV-2 [1]; [9]) [µM] | also measured
CC1CCCCN1C(=S)Sc1c(-c2ccccc2)c2cc(Cl)ccc2[nH]c1=O (stereo not drawn) [Compound 6c, 6-chloro-2-oxo-4-phenyl-1,2-dihydroquinolin-3-yl 2-methylpiperidine-1-carboditioate] | 265 to 266 | – | EC50 (SARS-CoV-2 [1]; [8]): 22.4 ± 2.58 µM
CCC(CC)COC(=O)[C@H](C)N[P@](=O)(OC[C@H]1O[C@@](C#N)(c2ccc3c(N)ncnn23)[C@H](O)[C@@H]1O)Oc1ccccc1 [remdesivir, reference compound] | – | 2.94 ± 0.67 | –
Cc1cc2c(cc1C)N(C(=O)COc1ccc3ccccc3c1)C(C)(C)c1ssc(=S)c1-2 [Compound 3a] | 189 to 190 | 0.51 ± 0.41 | –
CC(C)C[C@H](NC(=O)OCc1ccccc1)C(=O)N[C@@H](CC1CCNC1=O)C(O)S(=O)(=O)O (stereo partly drawn) [GC–376] | – | – | EC50 (SARS-CoV-2 [2]): ~1 µM; IC50 (SARS-CoV-2 Mpro): ~0.3 µM; CC50 [3]: > 200 µM
CC(C)C[C@@H](C=O)NC(=O)[C@H](CC(C)C)NC(=O)[C@H](CC(C)C)NC(=O)OCc1ccccc1 [MG–132] (Cbz-Leu-Leu-Leu-aldehyde) | – | – | EC50 (SARS-CoV-2 [4]): 0.1 µM
COc1ccc2c(c1)-c1c(ssc1=S)C(C)(C)N2C(=O)COc1ccc2ccccc2c1 [Compound 3d] | 136 to 137 | 9.4 ± 1.67 | –
c1ccc(Nc2nc(Nc3ccccc3)nc(N3CCCCCC3)n2)cc1 [Compound 9b, 6-(azepan-1-yl)-N,N’-diphenyl-1,3,5-triazine-2,4-diamine] | 160 to 161 | 1.04 ± 0.26 | –
CC(C)C[C@H](NC(=O)OCc1ccccc1)C(=O)N[C@H](C=O)CC1CCNC1=O (stereo partly drawn) [GC–373] | – | – | EC50 (SARS-CoV-2 [2]): ~1 µM; IC50 (SARS-CoV-2 Mpro): […]; CC50 [3]: > 200 µM
Cc1ccc2c(c1)-c1c(ssc1=S)C(C)(C)N2C(=O)COc1ccc2ccccc2c1 [Compound 3c] | 153 to 154 | 2.71 ± 0.91 | –
Cn1nc(-c2ccc(C(F)(F)F)cc2)nc2c(=O)n(C)c(=O)nc1-2 [Valrycin B] | – | – | EC50 (virus replication in cell culture) (SARS-CoV-2 [5]): submicromolar
Cn1cnc(Cn2c(=O)[nH]/c(=N\c3cc4cn(C)nc4cc3Cl)n(Cc3cc(F)c(F)cc3F)c2=O)n1 [Compound S-217622] | – | – | EC50 (SARS-CoV-2 [6]): 0.37 µM
O=c1[nH]c2ccc(Cl)cc2c(-c2ccccc2)c1SC(=S)N1CCCCC1 [Compound 6b, 6-chloro-2-oxo-4-phenyl-1,2-dihydroquinolin-3-yl piperidine-1-carboditioate] | – | – | EC50 (SARS-CoV-2 [1]; [8]): 7.62 ± 1.84 µM
c1ccc2cc(Nc3nc(Nc4ccc5ccccc5c4)nc(N4CCCCCC4)n3)ccc2c1 [Compound 9a, 6-(azepan-1-yl)-N,N ^′ -di(naphthalen-2-yl)-1,3,5-triazine-2,4-diamine] | 164 to 165 | 18.2 ± 4.2 | –
CN1CCN(c2nc(Nc3cccc4ccccc34)nc(Nc3cccc4ccccc34)n2)CC1 [Compound 9c, 6-(4-methylpiperazin-1-yl)-N,N ^′ -di(naphthalen-1-yl)-1,3,5-triazine-2,4-amine] | 160 to 161 | 19.6 ± 2.94 | –
Clc1ccc2nc(OCc3ccccc3Cl)c(N3CCOCC3)c(-c3ccccc3)c2c1 [Compound 6a, 6-chloro-2-[(2-chlorobenzyl)oxy]-3-(morpholin-4-yl)-4-phenylquinoline] | – | 4.77 ± 1.87 | –
CC(C)(C)[C@H](NC(=O)C(F)(F)F)C(=O)N1C[C@H]2[C@@H]([C@H]1C(=O)N[C@H](C#N)C[C@@H]1CCNC1=O)C2(C)C [PF-07321332, nirmatrelvir] | – | – | EC50 (SARS-CoV-2 [7]): 0.0853 µM
CC(NC(=O)C(Cc1ccccc1)NC(=O)OCc1ccccc1)C(=O)F (stereo not drawn) [Z-FA-FMK] | – | – | EC50 (virus replication in cell culture) (SARS-CoV-2 [5]): submicromolar
Cc1ccc2c(c1)N(C(=O)COc1ccc3ccccc3c1)C(C)(C)c1ssc(=S)c1-2 [Compound 3b] | > 144 | 1.16 ± 0.23 | –
